The values below come from publication PMC11900932 (International Journal of Molecular Sciences, 2025).

Structures can show the parent of a compound that is named as a salt. Where two headings read alike, the source gives them in different places.

Data set [1] addresses T1, SARS-CoV-2 3CL^pro (Severe acute respiratory syndrome coronavirus 2, UniProt P0DTD1). The conditions noted are these: cited from earlier work.
Data set [2] addresses T2, CTRC (Homo sapiens, UniProt Q99895).
T2 construct: purchased Novoprotein, Suzhou, China
T2 sequence (Q99895 30-268): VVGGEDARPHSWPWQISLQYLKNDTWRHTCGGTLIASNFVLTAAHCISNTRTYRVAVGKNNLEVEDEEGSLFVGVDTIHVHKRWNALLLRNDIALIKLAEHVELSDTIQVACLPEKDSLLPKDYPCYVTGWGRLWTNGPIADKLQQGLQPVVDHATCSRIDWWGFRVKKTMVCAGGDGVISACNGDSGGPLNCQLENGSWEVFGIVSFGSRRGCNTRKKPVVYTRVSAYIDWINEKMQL
As to the kind of experiment: Host protease selectivity test, Chymotrypsin. It counts as biochemical. The conditions noted are these: 5 and 50 μM. Here is the method: Chymotrypsin (CTRC) (Novoprotein, Suzhou, China) at a final concentration of 5 μg/mL was incubated in a buffer solution containing 50 mM Tris, 10 mM CaCl2, and 150 mM NaCl at pH 7.5 for a period of 30 min. Subsequently, trypsin was added to the mixture at the same concentration (5 μg/mL) and incubated for an additional 60 min at 37 °C. Following this, the reaction was initiated by adding 100 µM of the Succinyl-Ala-Ala-Pro-Phe-p-nitroanilide substrate (NJPeptide, Nanjing, China), and the mixture was incubated for another 60 min at 37 °C. Finally, the activity of CTRC was quantified by measuring the absorbance at 405 nm using a Cytation 5 plate reader (BioTek, Winooski, VT, USA).

The target in data set [3] is MERS-CoV 3CL^pro (Middle East respiratory syndrome-related coronavirus, UniProt K9N7C7). In words: biochemical.
Data set [4] concerns the target T3, CTSB (Homo sapiens, UniProt P07858).
T3 construct: purchased SinoBiological, Beijing, China
As to the kind of experiment: Host protease selectivity test, Cathepsin B. The class given is biochemical. The conditions noted are these: 5 and 50 μM. Here is the method:
Target selectivity tests toward host proteases were conducted based on our previous method. Cathepsin B (CTSB) (SinoBiological, Beijing, China) at a final concentration of 100 nM was prepared in buffer with 20 mM sodium acetate, 1 mM EDTA, and 2 mM DTT (pH 5.5) and incubated for 30 min at 30 °C. Next, the working solution of CTSB was diluted into 500 pM with the reaction buffer (100 mM MES pH 6.0, 1 mM EDTA, 2 mM DTT, and 0.01% Tween-20) and kept for 30 min. Then, the FRET substrate Z-Phe-Arg-AMC (NJPeptide, Nanjing, China) at 5 μM was added to activate the enzymatic reaction. The fluorescence signals were measured using a Cytation 5 plate reader (BioTek, Winooski, VT, USA) at 360 nm (excitation)/460 nm (emission) for 20 min.

A short description of data set [5]: Cell viability assay (CCK-8) on Vero-E6 cells. The conditions noted are these: African green monkey.
Data set [6] can be described thus: in vitro. The following applies: human.
Data set [7] concerns SARS-CoV-2-S pseudovirus. In words: microbe, parasite or virus in culture. It counts as cell-based. The following applies: for IC50: Pseudovirus, read-out: IC50, pseudovirus activity inhibition.
Data set [8] has as its target T4, CTSL (Homo sapiens, UniProt P07711).
T4 construct: purchased SinoBiological, Beijing, China
As to the kind of experiment: Host protease selectivity test, Cathepsin L. It counts as biochemical. The conditions noted are these: 5 and 50 μM. Here is the method:
Cathepsin L (CTSL) (SinoBiological, Beijing, China) at a final concentration of 100 nM in buffer (20 mM sodium acetate, 1 mM EDTA, and 5 mM DTT, pH 5.5) was activated by incubation at 30 °C. Then, the working solution of CTSL was diluted into 300 pM with the reaction buffer and incubated for 30 min. The addition of 5 μM FRET substrate Z-Phe-Arg-AMC (NJPeptide, Nanjing, China) initiated the reaction. The fluorescence signals at 360 nm (excitation)/460 nm (emission) were measured for 20 min with the Cytation 5 plate reader (BioTek, Winooski, VT, USA).

Data set [9] has as its target T5, TMPRSS2 (Homo sapiens, UniProt O15393).
T5 construct: purchased MedChemExpress, Shanghai, China
In words: Host protease selectivity test, TMPRSS2. The class given is biochemical. Here is the method:
TMPRSS2 protease at the concentration of 5 nM (MedChemExpress, Shanghai, China) was incubated with compounds in the reaction buffer (50 mM Tris-HCl, 1 mM CaCl2, 0.1% Tween 20, pH 8.0) for 1 h at 37 °C. Then, 45 μM substrate Boc-GIn-Ala-Arg-AMC (NJPeptide, Nanjing, China) was added to initiate the reaction. Fluorescence intensity was detected using a Cytation 5 plate reader at 380 nm (excitation)/460 nm (emission) for 1.5 h.

For data set [10], the target named is SARS-CoV 3CL^pro (Severe acute respiratory syndrome coronavirus, UniProt P0C6X7). As to the kind of experiment: biochemical.
Data set [11] concerns the target T1, SARS-CoV-2 3CL^pro. In words: biochemical.
Data set [12] deals with SARS-CoV-2-S pseudovirus Omicron. In words: microbe, parasite or virus in culture. The class given is cell-based.
For data set [13], the system named is SARS-CoV-2-S pseudovirus Delta. As to the kind of experiment: microbe, parasite or virus in culture. The class given is cell-based.
Data set [14] deals with human ACE2 (Homo sapiens, UniProt Q9BYF1). As to the kind of experiment: SPR binding to immobilized ACE2. How it is done: ACE2 and S-RBD were separately immobilized onto a CM5 chip via amine coupling in sodium acetate buffer (pH 4.0 for ACE2 and pH 5.5 for S-RBD) at a flow rate of 10 μL/min. After the chip surface was activated with NHS and EDC, ACE2 and S-RBD were injected at concentrations of 20 μg/mL and 30 μg/mL, respectively, and the surface was blocked using ethanolamine. […] All measurements were performed in PBS buffer (0.05% Tween-20, 5% DMSO, pH 7.4) at 25 °C, with corrections applied to address refractive index shifts and data drift. The binding affinities were quantified by fitting the interaction data to a Langmuir 1:1 binding model using Biacore Evaluation software.
Background: In SPR one partner is held on a chip, and binding of the other changes the refractive index at the surface.

The target in data set [15] is T1, SARS-CoV-2 3CL^pro. The class given is biochemical.
The test system of data set [16] is SARS-CoV-2-S pseudovirus Gamma. In words: microbe, parasite or virus in culture. The class given is cell-based.
Data set [17] has as its target SARS-CoV-2 S-RBD/ACE2 interaction (Severe acute respiratory syndrome coronavirus 2, UniProt P0DTC2). The class given is cell-based.
On the set-up of data set [18]: method as in doi:10.1177/009286150103500134. The following applies: cited from earlier work.
Data set [19] concerns the target SARS-CoV-2 S-RBD (Severe acute respiratory syndrome coronavirus 2, UniProt P0DTC2). In words: biochemical. The class given is binding.
Data set [20] has as its target T1, SARS-CoV-2 3CL^pro.
For data set [21], the target named is T1, SARS-CoV-2 3CL^pro. The following applies: cited from earlier work. The source holds these as a separate data set.

Chain of human ACE2 (Q9BYF1 18-805): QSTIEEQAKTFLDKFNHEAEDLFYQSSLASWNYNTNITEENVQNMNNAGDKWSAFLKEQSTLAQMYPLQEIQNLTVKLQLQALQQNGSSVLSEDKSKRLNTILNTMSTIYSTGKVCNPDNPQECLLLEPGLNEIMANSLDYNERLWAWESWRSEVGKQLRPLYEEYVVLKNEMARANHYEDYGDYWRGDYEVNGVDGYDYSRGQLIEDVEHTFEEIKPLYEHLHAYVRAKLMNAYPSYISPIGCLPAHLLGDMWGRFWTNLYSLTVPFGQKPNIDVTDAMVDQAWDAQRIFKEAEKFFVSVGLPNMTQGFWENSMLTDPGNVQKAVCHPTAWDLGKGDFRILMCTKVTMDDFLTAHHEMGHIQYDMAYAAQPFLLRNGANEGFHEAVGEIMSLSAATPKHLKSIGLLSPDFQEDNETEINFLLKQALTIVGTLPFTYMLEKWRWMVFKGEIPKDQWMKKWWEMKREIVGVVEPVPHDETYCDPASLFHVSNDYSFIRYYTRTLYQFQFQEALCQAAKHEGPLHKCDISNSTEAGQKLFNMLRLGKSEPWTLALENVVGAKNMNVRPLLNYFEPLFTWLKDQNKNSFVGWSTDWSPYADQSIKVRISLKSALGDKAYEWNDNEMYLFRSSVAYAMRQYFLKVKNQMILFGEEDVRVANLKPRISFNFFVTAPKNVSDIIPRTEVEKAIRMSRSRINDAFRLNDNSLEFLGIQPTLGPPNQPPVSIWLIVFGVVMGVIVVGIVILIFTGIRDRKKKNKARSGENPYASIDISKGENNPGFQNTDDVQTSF
Chain of MERS-CoV 3CL^pro (K9N7C7 3248-3553 limits assumed): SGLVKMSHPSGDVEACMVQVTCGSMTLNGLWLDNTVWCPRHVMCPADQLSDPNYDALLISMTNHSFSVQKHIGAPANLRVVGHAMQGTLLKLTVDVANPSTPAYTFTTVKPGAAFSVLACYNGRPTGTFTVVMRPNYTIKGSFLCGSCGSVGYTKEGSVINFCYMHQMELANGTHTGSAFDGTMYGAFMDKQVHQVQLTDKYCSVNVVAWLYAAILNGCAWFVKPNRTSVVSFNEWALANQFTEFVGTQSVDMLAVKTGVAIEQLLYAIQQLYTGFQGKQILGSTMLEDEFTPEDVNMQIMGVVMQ
T4 sequence (P07711 114-333): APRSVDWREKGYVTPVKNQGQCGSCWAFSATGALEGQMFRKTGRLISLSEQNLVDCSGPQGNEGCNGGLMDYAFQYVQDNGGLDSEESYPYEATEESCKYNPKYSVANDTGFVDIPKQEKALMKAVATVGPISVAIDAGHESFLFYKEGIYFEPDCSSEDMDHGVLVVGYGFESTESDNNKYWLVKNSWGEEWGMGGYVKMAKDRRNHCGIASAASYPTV
T5 sequence (O15393 whole entry): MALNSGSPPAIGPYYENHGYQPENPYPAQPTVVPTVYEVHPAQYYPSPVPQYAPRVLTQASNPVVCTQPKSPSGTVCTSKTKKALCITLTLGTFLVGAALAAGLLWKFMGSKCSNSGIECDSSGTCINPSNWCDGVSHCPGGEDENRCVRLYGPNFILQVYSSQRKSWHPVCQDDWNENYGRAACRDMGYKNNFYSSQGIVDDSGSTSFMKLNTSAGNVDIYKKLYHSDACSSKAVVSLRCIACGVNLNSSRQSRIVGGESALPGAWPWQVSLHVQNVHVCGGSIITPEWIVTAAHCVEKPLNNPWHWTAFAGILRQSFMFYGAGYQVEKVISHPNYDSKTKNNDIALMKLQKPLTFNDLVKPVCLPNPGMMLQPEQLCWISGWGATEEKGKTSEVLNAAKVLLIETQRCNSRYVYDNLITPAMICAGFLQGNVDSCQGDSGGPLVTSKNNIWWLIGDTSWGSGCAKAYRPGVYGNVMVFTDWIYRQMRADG

On to `O=c1cc(-c2ccc(O)cc2)oc2cc(O)cc(O)c12` [Apigenin], for which the IC50 in data set [1] was 84.9 µM.
For `NC(CO)C(=O)NNCc1ccc(O)c(O)c1O` (centres unmarked) [Benserazide hydrochloride], the “inhibitory activity against CTRC” value in [2] is given as “did not”. The results for the IC50 in data set [3], in [7] and in data set [10] were 8.81 ± 0.34 µM, greater than 200 µM and 3.04 ± 0.4 µM, respectively. Besides, the “inhibition of CTSB” value in [4] was “neither compound significantly inhibited”. The compound further gave a CC50 at 24 h in data set [5] greater than 100 µM. The compound also gave a CC50 in data set [6] greater than 200 µM. In addition, the “inhibition of pseudovirus entry into host cells” value in [7] is given as “lacked the capacity to inhibit pseudovirus entry into host cells”. Further, in data set [8], the “inhibition of CTSL” value is listed as “neither compound significantly inhibited”. In [9], the “inhibition of TMPRSS2” value was “neither compound significantly inhibited”.
On to `Oc1cc(O)c2c(c1)O[C@H](c1ccc(O)c(O)c1)[C@H](O)C2` [Epicatechin], for which, in [11], inhibition was half-maximal at 3.3 µM (IC50).
Take `O=C(c1cc(O)c(O)c(O)c1)c1ccc(O)c(O)c1O` [Exifone]: the “inhibitory activity against CTRC” value in [2] is listed as “significant inhibitory activity”. Also, the IC50 in data set [3] was found to be 13.9 ± 0.38 µM; in data set [12], 55.1 ± 6.15 µM; in data set [13], 150 ± 5.06 µM; in data set [7], 76.5 ± 32.6 µM; in data set [16], 159 ± 4.95 µM; in [10], 3.36 ± 0.08 µM. In [4], the “inhibition of CTSB” value is given as “neither compound significantly inhibited”. In data set [5] (Vero-E6 cells), this compound displayed a CC50 at 24 h greater than 100 µM. The same compound showed a CC50 in data set [6] greater than 200 µM. The Kd was 1.93 µM in data set [14] and 0.818 µM in [19]. This compound also gave a kd in data set [14] (SPR, immobilized ACE2) of 0.00045 s⁻¹. The type of inhibition result in [15] is on record as “non-competitive inhibition with an allosteric mechanism”. In data set [8], the “inhibition of CTSL” value is recorded as “neither compound significantly inhibited”. Moreover, the “S-RBD binding signal on Vero-E6 cells” value in [17] is on record as “marked reduction in the S-RBD binding signal”. Besides, the “inhibition of TMPRSS2” value in data set [9] is “neither compound significantly inhibited”. The “reason for withdrawal from the market” value in [18] is listed as “hepatotoxicity”. For the same compound, the inhibition at 5 µM in data set [11] (read-out: inhibition of SARS-CoV-2 3CLpro activity) was greater than 50%. In addition, the TDI effect result in data set [20] is recorded as “did not exhibit a significant TDI effect”.
As for `O=C(/C=C/c1ccc(O)cc1)c1ccc(O)cc1O` [Isoliquiritigenin], the 50% inhibitory concentration (IC50) in data set [11] is 73.9 µM.
As for `COc1cc(-c2oc3cc(O)cc(O)c3c(=O)c2O[C@@H]2O[C@H](CO[C@@H]3O[C@@H](C)[C@H](O)[C@@H](O)[C@H]3O)[C@@H](O)[C@H](O)[C@H]2O)cc(O)c1O` [Laricitrin 3-rutinoside], in [11], the IC50 stood at 3.82 µM.
For `COC(=O)[C@@H](Cc1ccc(O)c(O)c1)OC(=O)/C=C/c1ccc(O)c(O)c1` [Methyl rosmarinate], the IC50 in data set [21] is 2.5 µM.
`C[C@@H]1O[C@@H](OC[C@H]2O[C@@H](Oc3c(-c4cc(O)c(O)c(O)c4)oc4cc(O)cc(O)c4c3=O)[C@H](O)[C@@H](O)[C@@H]2O)[C@H](O)[C@H](O)[C@H]1O` [Myricetin-3-O-rutinoside] displayed an IC50 in data set [11] of 0.85 µM.
As for `C/C=C1/[C@H](O[C@@H]2O[C@H](CO)[C@@H](O)[C@H](O)[C@H]2O)OC=C(C(=O)OC)[C@H]1CC(=O)OCCc1ccc(O)c(O)c1` [Oleuropein], the IC50 in data set [21] was 3.5 µM.
On to `O=c1cc(-c2ccc(O)c(O)c2)oc2cc(O)cc(O)c12` [luteolin], for which the IC50 in data set [1] is 74.9 µM.

By IC50 is commonly meant the concentration needed to halve the response being measured. One may read the Kd as the concentration at which binding is half-saturated. What is called inhibition is the percentage by which the read-out fell short of the control.
